Source: PMC5521794, “Understanding Russell’s viper venom factor V activator’s substrate specificity by surface plasmon resonance and in-silico studies” (PLoS ONE, 2017)
Read-outs that look alike come from different tables or passages of the source.

Key:
RVV-V [1] = molecular target: T1, RVV-V (Daboia siamensis, UniProt P18965); settings: two-state fit
Method: The Russel viper venom was purchased from Irula Snake-Catchers Industrial Cooperative Society (ISCICS), Tamil Nadu, India. The RVV-V was purified as described by Shiffman et al., with some changes. Lyophilized Crude venom (100 mg) was dissolved in 1 ml of 50 mM Sodium Acetate buffer (pH 5.5). The solution was centrifuged at 12,000 rpm for 10 minutes at 4°C and the supernatant was loaded to Sephadex S-100 column (FPLC). Peaks containing the RVV-V were pooled and loaded for CM Sepharose FFCation Exchange (Pharmacia) column (equilibrated with 50 mM sodium acetate buffer pH 5.5). Proteins were eluted with 50mM Na-acetate buffer with gradient 0 to 1 M Sodium Chloride. The fractions of RVV-V were pooled, dialyzed in 50 mM sodium-acetate buffer, and concentrated. Further, the binding kinetics was performed for RVV-V with both the peptides (purchased from Genei™) by SPR method.
The SPR is a well-known primary protein-ligand screening method for the measurement of a real-time, label-free detection of biomolecular interactions like protein-peptide, antibody-antigen, and protein-DNA interactions. A small amount of protein is sufficient and the affinity data are more accurate as the recorded Sensorgram is time-dependent and a continuous flow system. In the experiment the ligand is saturated with an immobilized protein followed by washing, and the association constant (Ka), and the dissociation constant (Kd) are obtained from the binding response data. Biacore T200 optical biosensor was used to get the interaction kinetics of RVV-V with the peptides. The purified RVV-V (concentration of 50 μg/ml in 50 mM sodium acetate buffer, pH 5.5) was immobilized on CM5 chip by amine-coupling method. A constant flow rate of 10μl/min was used to activate the surface of the flow cell for 7 min using a 1:1 mixture of 100 mM N-hydroxysuccinimide (NHS) and 100 mM N-ethyl-N-(dimethylaminopropyl)-carbodiimide (EDC) dissolved in water. The RVV-V was injected for 7 min, and the non-activated carboxy methyl groups on the surface were blocked by 7 min injection of 1 M ethanolamine (pH 8.5) and totally 3000 RU of the RVV-V were immobilized on the chip.
Biacore control software was used for obtaining all data by monitoring the change in the refractive index as a function of time at a flow rate of 30 μl/min. A relative quantity of peptide bound to RVV-V was quantified by calculating the amount of net increase in the refractive index over a period as compared to the initial buffer (PBS) response. The inline subtraction is performed during each run. Before changing each peptide and the peptide-concentration, the surface of the sensor chips was washed by running the buffer (PBS) and the chip was regenerated by injecting 10 mM glycine pH 2.5 for 30 sec. The association and the dissociation times are 120 and 300 sec respectively. For both the peptides, the experiment was performed by changing the concentration of the peptides ranging from 62.5 uM to 1 mM.

RVV-V [2] = molecular target: T1, RVV-V; settings: ref [16], [17]; cited from earlier work
Description: In general, serine proteases are robust and highly sensitive for the cleavage sites; they contain catalytic triad or diad in the active site. […] Both these proteins are active against different molecular substrates. The molecular structure and the catalytic triad arrangement of the RVV-V are analogous with that of the thrombin.

Factor V = settings: sites I, II and III of FV; ref [11]; cited from earlier work
Description: Factor V (FV) is a well-studied large protein, consists of six domains, involved in the blood coagulation cascade. […] Both the proteins cleave the FV at three different sites of FV viz., site I (Arg709–Ser710), site II (Arg1018–Thr1019), and site III (Arg1545–Ser1546). Highly glycosylated B domain of FV is removed by these proteases to achieve an active form of FV.

[3] = ref [16], [17]; cited from earlier work
Description: (§1) Both these proteins are active against different molecular substrates.

[4] = test system: fibrinogen, prothrombin, factor VIII, and FX; settings: ref [14], [15]; cited from earlier work
Description: as §1

T1 sequence (P18965 25-260): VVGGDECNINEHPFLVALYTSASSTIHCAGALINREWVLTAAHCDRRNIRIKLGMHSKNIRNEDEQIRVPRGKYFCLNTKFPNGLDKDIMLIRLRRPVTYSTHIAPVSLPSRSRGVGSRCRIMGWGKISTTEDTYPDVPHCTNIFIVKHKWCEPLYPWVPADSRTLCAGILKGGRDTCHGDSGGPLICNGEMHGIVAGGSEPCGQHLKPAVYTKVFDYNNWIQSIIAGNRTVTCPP

1008KHTHHAPLSPRTFHP1022 [Peptide II]
ka1 (RVV-V [1]; Biacore T200, RVV-V immobilized on CM5 chip (amine coupling, 3000 RU), PBS, 30 μl/min, peptide 62.5 uM to 1 mM, association 120 s, dissociation 300 s): 760.4 M⁻¹ s⁻¹
Kd1 (RVV-V [1]; Biacore T200, RVV-V on CM5 chip, PBS, peptide 62.5 uM to 1 mM, dissociation rate constant of first step): 2.414 s⁻¹
kd2 (RVV-V [1]; Biacore T200, RVV-V on CM5 chip, PBS, peptide 62.5 uM to 1 mM, second step): 0.001942 s⁻¹
ka2 (RVV-V [1]; Biacore T200, RVV-V on CM5 chip, PBS, peptide 62.5 uM to 1 mM, second step (conformational change)): 0.0002809 s⁻¹
kd1 (RVV-V [1]; first (unstable) complex): 2.414 s⁻¹
ka1 (RVV-V [1]; first reaction): 760.4 M⁻¹ s⁻¹
kd2 (RVV-V [1]; second (more stable) complex): 0.001942 s⁻¹
ka2 (RVV-V [1]; second reaction): 0.0002809 s⁻¹

O=C(O)CN(CCN(CC(=O)O)CC(=O)O)CC(=O)O [EDTA]
response of RVV-V to serine protease inhibitor (RVV-V [2]): no response

Russell’s viper venom factor V activator [RVV-V]
cleavage of FV sites (Factor V): cleaving the site III and does not cleave the other two thrombin-susceptible sites
amidase activity [3]: weak amidase activity
effect on structure or activity after prolonged incubation [4]: no effect
